Measurements published in US6462086B1, “Non-malignant disease treatment with Ras antagonists” (Ramot University Authority for Applied Research and …, priority 1999, dated 2002).

Tests used:
EAN in Lewis rats = test: EAN rats, electrophysiology (tail nerve stimulation, CMAP); format: in vivo, rat; conditions: day 20; FTS for 10 or 28 days
Method: The animal was anesthetized with phenobarbital. […] Previous experience has shown that smaller amounts are necessary during the acute EAN disease phase in order to avoid mortality. Mono-polar needle electrodes were used to stimulate the sciatic nerve and the response was measured in the plantar muscle by a surface ring electrode (8). Alternatively, the tail nerves were stimulated and tail muscle response measured by the same electrodes. […] The tail response was therefore be used in the early disease stage (days 18-22). The latency of responses to distal and proximal stimulation were used to calculate nerve conduction velocity. The amplitude of the responses was used to assess conduction block. Electrophysiological assays were performed on day 20 in the 3 groups of rats described in the previous section.

[1] = tested on: splenocytes from ICR mice; format: cell-based, mouse; conditions: 10 and 50 μM FTS
Method: An examination was made as to whether the effect of FTS on Ras levels was of functional importance in splenocytes prepared from 2 ICR mice. Stimulation of ^3H-thymidine incorporation into DNA was used as measure of splenocyte proliferation in the presence of lipopolysaccharide (LPS) or concanavalin A (ConA), and in the presence of 0, 10 and 50 μM FTS. The methods used are detailed below. […] Also, FTS had no effect on basal ^3H-thymidine incorporation into DNA. The concentrations of FTS at which inhibition of lymphocyte cell growth were observed reflect expected levels of the drug when given in animals at doses of 5-10 mg/kg.
Mice were killed by cervical dislocation and spleens removed with sterile precautions and placed in disposable plastic Petri dishes containing Dulbecco's phosphate-buffered saline (DPBS). […] Cells from each microculture were harvested on fibroglass filters with multiharvester and counted in liquid scintillation β counter.
Mitogens and antigens were diluted to appropriate concentrations in the incubation medium and added to the wells at the beginning of incubation period to give a final concentration of 1.0 μg/ml lipopolysaccharide (LPS), 1.0 μg/ml Concanavalin A (ConA) or 10 μg/ml beta2-Glycoprotein I (beta2-GPI). Spontaneous proliferation (without mitogen or antigen) was also assessed. […]
The results are expressed as the mean value of stimulation index per group. […]

[2] = tested on: carotid balloon injury in Wistar rats; test: Rat carotid balloon injury, intimal hyperplasia (morphometry); format: in vivo
Method: Group A: Four rats received daily intraperitoneal injections of FTS (5 mg/Kg) starting from the day of injury induction until sacrifice, 14 days later.
Group B: Four rats received daily intraperitoneal injections of control vehicle starting from the day of injury induction until sacrifice, 14 days later.
Animals were anesthetized by intraperitoneal injection of Ketamin (80 mg/Kg) and Xylazine (5 mg/Kg). […] Briefly, a balloon catheter (2F Fogarty) was passed through the external carotid into the aorta; the balloon was inflated with sufficient water to distend the common carotid artery and then pulled back to the external carotid. This procedure was repeated three times, and then the catheter was removed. After 14 days, the animals were sacrificed and the right and left carotid arteries were taken out and fixed in 4% paraformaldehyde until embedding in Paraffin. The arteries were cut in 10 um sections and stained with H&E and computer-assisted morphometric analyses were performed. The tested parameters were: intimal area, medial area, intimal/medial ratio and lumen area. Additionally, the %CSAN-N (% cross sectional area neointimal-neointamal) was calculated [IEL area-Lumen area]×100/IEL (a measure of the degree to which the IEL area is reduced by neointimal with greater normalization of the effect of changes in vessel wall size. Vasular remodeling process were further evaluated by computing the amount of plaque relative to the EEL (external elastic lamina) area.

Ras = Ras expression in rat liver membranes (Western blot); format: in vivo
Method: The levels of Ras proteins in the rat livers were determined by immunoblotting assays using anti Ras antibodies (PanRasAb03, Santa Cruz) as detailed previously (4, 5). Briefly, the livers were homogenized (10% w/v) in 0.32M sucrose, 50 mM Tris HCl, pH 7.4 buffer containing 3mM EDTA, 1 mM EGTA, 5 μg/ml pepstatine, and 5 units/ml opsotonin. Nuclei and cell debris were removed by a 10-minute 1000×g spin. The plasma membrane-enriched fraction was obtained by a 20,000×g 30 minute spin. The resulting pellets were resuspended in homogenization buffer and samples containing 20 μg proteins were used for 12.5% SDS-PAGE (mini gels). The gels were subjected to immunoblotting assays as described previously (4). Each western blot was analyzed 3 times and the data in FIG. 17 represent the means±SD OD of these 3 blots. Ras was also determined by immunohistochemistry.

With `CC(C)=CCC/C(C)=C/CC/C(C)=C/CSc1ccccc1C(=O)O` [FTS, farnesyl thiosalicylic acid] as the compound, how does the “compound muscle action potentials (CMAPs), tail muscle” value (EAN in Lewis rats) read?
The value was “significant amelioration”.

And the “LPS and ConA induced splenocyte proliferation (stimulation index)” value [1]?
Its value is “significant reduction”.

And the “basal 3H-thymidine incorporation into DNA” value [1]?
The value was “no effect”.

What about the “reduction of intimal area” value ([2]; FTS 5 mg/Kg i.p. daily 14 days vs control) of the same compound?
Its value is 76%.

What about the medial area ([2]; FTS 5 mg/Kg i.p. daily 14 days, control 1.2±0.14) of the same compound?
The medial area was 0.91 mm^2.

And the Intimal area ([2]; FTS 5 mg/Kg i.p. daily 14 days, control 1.61)?
The Intimal area was 0.38 mm^2.

What about the luminal area ([2]; FTS 5 mg/Kg i.p. daily 14 days, control 2.30) of the same compound?
The luminal area was 1.45±0.34 mm^2.

What about the “%CSAN-N” value ([2]; FTS 5 mg/Kg i.p. daily 14 days, control 52.4±7.4) of the same compound?
Its value is 15.5±4.3%.

What about the “decrease in Ras expression in the livers of TAA-treated rats” value (Ras; FTS treatment) of the same compound?
The value was 70%.

What about the “Ras levels in liver membranes, fold higher than control group” value (Ras; TAA+FTS treated group, TAA alone 17.6±2.0-fold) of the same compound?
Its value is 4.9±1.2 fold.
